Where two headings read alike, the source gives them in different places. Blank lines part the entries; values can stand above or below the substance they belong to.
Experiments:
MPCs [1] = settings: cited from earlier work; for Promotion of chondrogenesis of MPCs: absent growth factors or other chondroinductive supplements
MPCs [2] = assay: qPCR gene expression of MPC pellets (chondrogenic differentiation); type: cell-based, human; settings: for Expression of BMP13: over untreated controls
Procedure: (§1) Stro1-selected human MPCs were prepared by Lonza (Walkersville, USA) for Mesoblast Ltd (Melbourne, Australia) according to the isolation procedure described by Gronthos et al. MPCs were cultured in alphaMEM supplemented with 100 U/ml penicillin, 100 μg/ml streptomycin (Gibco/Invitrogen Carlsbad, Calif., USA), 10% batch tested foetal bovine serum (FBS), 2 mM L-Glutamine, 1 mM Sodium Pyruvate, and 100 μM L-ascorbate-2-Phosphate. Tissue culture flasks were maintained at 37° C. in 5% CO2 in an atmosphere with 95% humidity. Upon reaching 70% confluence MPCs were passaged, replating at 2000 cells/cm2.
(§2) Chondrogenic differentiation was compared for MPCs cultured in maintenance medium and treated with PPS, HA, HA-PPS and HA-PPSCOOH at concentrations equivalent to 5, 10 and 20 μg/ml unbound PPS. These factors were added to the cells prior to pellet formation, which was initiated by centrifuging 2×105 MPCs in a non-adherent U-bottom plate at 500 g for 10 min. MPC pellets were cultured in […] medium with media changes every 3-4 days. After 21 days, samples were taken for analysis by histological staining, DMMB assay and qPCR.
Total RNA was extracted using an RNeasy Minikit with on-column DNase treatment (Qiagen) according to the manufacturer's instructions, cDNA was synthesized from 250 ng RNA, or the equivalent volume of DNase and RNasefree water for no-RT controls, using the SuperScript® III First-Strand Synthesis System (Invitrogen). qPCR reactions were set-up in a total volume of 10 μl with 1× Platinum SYBR Green qPCR SuperMix-UDG (Invitrogen) and 0.2 μM forward and reverse primers. A 7500 Fast Real-Time PCR System (Applied Biosystems) with fast cycling parameters of 2 min at 50° C., 2 min at 95° C. then 40 cycles of 3 sec at 95° C. and 30 sec at 60° C. followed by a melt curve was used to run the samples. Data was analysed using the 2-^ΔΔct method and normalized back to untreated monolayer levels.

MPCs [3] = assay: CCK8 assay of MPC proliferation; type: cell-based, human; settings: 7 days; concentrations equivalent to 5, 10 and 20 μg/ml unbound PPS
Procedure: as §1
MPCs were seeded at a density of 2000 cells/cm2 in a 96-well plate and allowed to adhere for 4 hrs at which point the medium was exchanged for MPC maintenance medium supplemented with PPS, HA, HA-PPS and HA-PPSCOOH at concentrations equivalent to 5, 10 and 20 μg/ml unbound PPS. MPCs were cultured for 7 days with media changes every 2-3 days and the cell number determined by CCK8 assay (Sigma). Briefly, the culture medium was replaced with 100 μl MPC maintenance medium (without phenol red) containing 10% (v/v) CCX8. After 2 hrs the absorbance was read at 450 nm. All samples were performed in triplicate and normalised to blank medium without cells.

MPCs [4] = assay: DMMB assay for GAG content of chondrogenic MPC pellets; type: cell-based, human
Procedure: as §2
Chondrogenic pellets were collected, rinsed in PBS and lysed in 1 mg/ml Papain in 100 mM sodium phosphate, 5 mM EDTA and 5 mM L-cystein (pH 6.5) overnight at 60° C. Samples of 40 μl were plated in triplicate with the addition of 10 μl 1% BSA in PBS and 50 μl 2×1,9-dimethylmethylene blue (DMMB). These were incubated at room temperature for 15 min and the absorbance at 525 nm read using a Spectramax M5 Fluorometer (Molecular Devices). Samples were normalized to DNA content as assessed by PicoGreen assay (Molecular Probes: performed according to the manufacturer's instructions).

Swelling of hydrogels = type: physicochemical; settings: incorporated into the hydrogels; p<0.05
Procedure: To determine the degree of swelling, 50 μl gels were synthesized and the dry weight obtained after freeze-drying for 24 hrs (Wd). The gels were then incubated in 500 μl PBS for 24 hrs at […]. The PBS was removed and the gels reweighed (Ws). The degree of swelling was determined by ((Ws-Wd)/Wd) using triplicate gels for each condition. Degradation of 50 μl gels was measured over a period of 3 months using triplicate samples for each condition. After synthesis, the gels were incubated in PBS/0.01% Sodium azide at 37° C. with weekly changes of buffer. At specific tirnepoints all excess PBS was removed and the gels weighed. The degree of degradation was expressed as a % of the original gel mass.

[5] = Rheological characterisation of PEG/HA hydrogels; type: physicochemical; settings: incorporated into PEG/HA hydrogel
Procedure: All rheological measurements were obtained using an AR G2 rheometer (TA Instruments, New Castle, Del.) in oscillatory mode using a 20 mm diameter stainless steel flat plate and lower Teflon Pelletier surface. The gels were synthesized and, upon addition of the H2O2, immediately vortexed and loaded between the plates of the rheometer with a gap measurement of 1000 μm. Gelation kinetics and final moduli were determined by timesweeps at 37° C., conducted with a controlled strain of 1% and an angular frequency of 6.28 rad/sec. Frequency sweeps were performed between 5.000E-3 to 50 rad/sec at 1% strain. Stress sweeps confirmed that this was within the linear viscoelastic region.

MPCs [6] = assay: Live/dead staining of MPCs encapsulated in HA/PEG hydrogels; type: cell-based, human; settings: HA/PEG hydrogels containing the substance; 24 hrs and 7 days
Procedure: (§3) MPCs (P4-6) were encapsulated in gels containing 15 mg/ml HATYR, 16.5 mg/ml PEGHPA. 0.25 U/ml horseradish peroxidase (HRP) and varying amounts of hydrogen peroxide (H2O2). Soluble PPS was added into the gels prior to crosslinking at a final concentration of 5 μg/ml. HA-PPS and HA-PPSCOOH were incorporated at concentrations of 16 μg/ml and 9 μg/ml respectively giving a concentration of PPS equivalent to 5 μg/ml unbound PPS.
(§4) MPCs were resuspended to a concentration of 5×10^6 cells/ml in solution containing all of the components except H2O2 and thoroughly mixed. Crosslinking was then initiated by the addition of H2O2 and the gels spotted out into lowbinding tissue culture plates. After 15 minutes, growth media was added to the well and the cell/gel composites cultured for up to 21 days with media changes every 3-4 days.

MPCs [7] = assay: Collagen-II immunofluorescence of MPC/hydrogel composites; type: cell-based, human; settings: compared to gels alone
Procedure: as §3, §4
Samples were fixed in 4% paraformaldehyde for 20 min and rinsed with PBS. To detect Collagen-II, the samples were digested with 0.01% pepsin (w/v) in 0.01M HCL (pH2) for 30 min at 37° C. and incubated in 0.1% Triton-X-100 for […] at RT° C. before blocking in 2% BSA/2% goat serum for 1 hr. A Collagen-II antibody (Abram ab3092) was used at a dilution of 1/50 for 2 hrs followed by incubation with an AlexFluor 488-conjugated secondary antibody for 1 hr. […]

[8] = absence of differentiation factors

Substance: dextran sulphate
- Promotion of chondrogenesis of MPCs (MPCs [1]): did not show any success

Substance: heparin
- Promotion of chondrogenesis of MPCs (MPCs [1]): did not show any success

Substance: hyaluronic acid [HA]
- Expression of BMP13 (MPCs [2]; [8]): no effect
- MPC proliferation (CCK8 assay) (MPCs [3]): did not have this effect
- Proteoglycan (PG) synthesis by MPCs (MPCs [1]; higher concentrations): inhibited PG synthesis
- Proteoglycan (PG) synthesis by MPCs (MPCs [1]; low concentrations): showed some stimulation
- GAG production by MPCs (MPCs [4]; exposure of MPCs to substance alone): did not produce any increase in GAG production

- Change in swelling of hydrogel (Swelling of hydrogels): decreased
- Gelation process of hydrogel [5]: slows the gelation process
- Resulting modulus of hydrogel [5]: small decrease in resulting modulus
Substance: pentosan polysulfate [PPS]
- Expression of osteogenic transcription factor Runx2 (MPCs [2]; absence of any differentiation factors, vs untreated controls): small but significant decrease
- Expression of the BMP antagonist Noggin (MPCs [2]; [8]): decreased
- Expression of BMP13 (MPCs [2]; [8]): significantly increased
- Promotion of chondrogenesis of MPCs (MPCs [1]): induced the in vitro proliferation and chondrogenic differentiation of MPCs
- GAG content (DMMB assay) (MPCs [4]; % of untreated pellets, after 21 days, no additional chondrogenic factors): 150%
- Viability of encapsulated MPCs (MPCs [6]): retained good viability
- Deposition of collagen-II around encapsulated MPCs (MPCs [7]): increased
